In US20020127186A1, “Use of electrolytes (lons in solution) to suppress charging of inhalation aerosols” (priority 2000, published 2002):

Key:
[1] = Net aerosol electric charge of AERx aerosols, measured with a Faraday cup; type: physicochemical
Experimental: The AERx™ system (as described and disclosed in U.S. Pat. Nos. 5,544,646 and 6,123,068) produces aerosols by extruding the liquid contents of a single dose blister packet (here 45 uL) through an array of micro-drilled holes. The jets formed during the extrusion process are entrained by the patient inhalation air flow. (Schuster J et al., In Drug Delivery to the Lungs VIII, pp14-17, 1997; Schuster J et al., In Respiratory Drug Delivery VI, pp. 83-90, 1998).
For the measurements of electric charge, the air flow was simulated with pressurized house air. A Faraday cup was inserted in the flow path of the aerosol a few centimeters downstream from the point of generation. It comprised a perforated aluminum cartridge filled with a paper filter, which was inserted into and insulated from a grounded metal enclosure, used as a shield from external electromagnetic noise. A coaxial wire connected to the aluminum cartridge was passed through the metal enclosure and connected to a current-voltage converter of the op-amp design (ammeter). The voltage output from the ammeter was acquired as a function of time by a computer together with other information about the extrusion process, such as the position of the piston that pressurizes the blister pack during an extrusion.
The formulations tested in EXAMPLES 1, 2 and 3 were de-ionized water (DI), sterile water for injection USP (WFI), 5 mM and 10 mM sodium chloride in water, and 30 mg/ml sodium cromoglycate (cromolyn) in water.
The region between aerosol generation and the Faraday cup was inspected after each extrusion (“run”), and any residue found was wiped clean. This region was all metallic in the system used here and comprised two separable parts, the so-called “clamp”, in which the packet is held and the aerosol is generated, and the so-called “diffuser”, which is positioned immediately downstream from the clamp. This diffuser was removed in some of the Examples herein discussed.
A measure of the net electric charge carried by the bolus was obtained from the numerical integral over time of the electric current signals. […]

[2] = Residue between aerosol generation and Faraday cup, inspected after each extrusion; type: physicochemical; conditions: EXAMPLE 1, diffuser on; 30 mg/ml in water; compared with DI water
From the text: The region between aerosol generation and the Faraday cup was inspected after each extrusion (“run”), and any residue found was wiped clean. This region was all metallic in the system used here and comprised two separable parts, the so-called “clamp”, in which the packet is held and the aerosol is generated, and the so-called “diffuser”, which is positioned immediately downstream from the clamp. This diffuser was removed in some of the Examples herein discussed. […] Several runs carried out with a “dummy” packet that contained no liquid (labeled “no article” by the “X” in FIG. 1) gave rise to no measurable levels of charge. […] The difference in residue is another indication of high charging.

[3] = EXAMPLE 2, diffuser not present, solutions in water (5 and 10 mM NaCl; 30 mg/ml cromolyn), compared with WFI, FIG. 2

net aerosol charge ([1]; EXAMPLE 1, diffuser on, 30 mg/ml in water, compared with DI water, FIG. 1) | Compound | net aerosol charge [1, 3] | residue in the diffuser [2]
 | [Cl-].[Na+] [NaCl, sodium chloride] | much lower charge than water for injection | 
significantly reduced charge level | O=C(O)c1cc(=O)c2c(OCC(O)COc3cccc4oc(C(=O)O)cc(=O)c34)cccc2o1 [cromolyn, sodium cromoglycate] | much lower charge than water for injection | a small fraction of the initial packet contents
